The record followed here is ChEMBL document CHEMBL3044794, “Antifungal activity of some tetranortriterpenoids” (2000).

Test [1] has as its system Puccinia arachidis. In words: Antifungal activity against Puccinia arachidis in ground nut assessed as rust pustule count at 10 ug/cm'2 measured after 12 days from inoculation. It counts as functional.
Test [2] relates to Puccinia arachidis. In words: Antifungal activity against Puccinia arachidis in ground nut assessed as rust pustule count at 1 ug/cm'2 measured after 12 days from inoculation (reference value: 22.73 %). In kind it is functional.

`CC1(C)O[C@H]2CC(=O)OC[C@]23[C@H]2CC[C@@]4(C)[C@H](c5ccoc5)OC(=O)[C@H]5O[C@]54[C@]2(C)C(=O)C[C@@H]13` [LIMONIN]: the “inhibition (INH)” value in test [1] is given as -15.7%; in test [2], 67.7%.
Taken in the same sequence, the figures for `CC1(C)O[C@H]2CC(=O)OC[C@]23[C@H]2CC[C@@]4(C)[C@@H](c5ccoc5)OC(=O)[C@H]5O[C@]54[C@]2(C)[C@H](O)C[C@@H]13` [LIMONOL] were 62.3% and 37.9%.
The like results for `CC(=O)OC1=C2C(C)(C)C(=O)CC[C@]2(C)[C@H]2CC[C@@]3(C)[C@H](c4ccoc4)C[C@H]4O[C@]43[C@]2(C)C1=O` [DIHYDROCEDRELONEDIACETATE] were, in that order, 87% and 77.6%.
The like results for `CC(=O)O[C@@H]1C[C@H]2C(C)(C)C(=O)C=C[C@]2(C)[C@H]2CC[C@]3(C)C(=CC(=O)[C@H]3c3ccoc3)[C@@]21C` [AZADIRADIONE] were, in that order, 76.9% and 75.7%.
Regarding `COC(=O)C1(O)C2C(C)(C)C(=O)C=C[C@]2(C)[C@H]2CC3[C@H](c4ccoc4)C[C@H]4O[C@@]34C[C@@]21C` (stereo partly drawn) [METHYL ISOCEDRELONATE], the “inhibition (INH)” value in test [1] was determined as 2.3%; in test [2] it was 7.6%.
Taken in the same sequence, the figures for `CC1(C)C(=O)C=C[C@@]2(C)C1=C(O)C(=O)[C@]1(C)[C@@H]2CC[C@@]2(C)[C@H](c3ccoc3)C[C@H]3O[C@]321` [CEDRELONE] were 93.4% and 98.4%.
The like results for `CC1(C)C(=O)CC[C@@]2(C)C1=C(O)C(=O)[C@]1(C)[C@@H]2CC[C@@]2(C)[C@H](c3ccoc3)C[C@H]3O[C@]321` [DIHYDROCEDRELONE] were, in that order, 66.7% and 42.6%.
Taken in the same sequence, the figures for `CC1(C)C(=O)C=C[C@@]2(C)C1C(O)(C(=O)O)[C@@]1(C)C[C@@]34O[C@@H]3C[C@@H](c3ccoc3)C4C[C@H]21` (stereo partly drawn) [ISOCEDRELONIC ACID] were 91.4% and 36.9%.
For `CC(=O)O[C@H](CC(=O)O)[C@]1(C)[C@H]2CC[C@@]3(C)[C@@H](c4ccoc4)OC(=O)[C@H]4O[C@]43[C@]2(C)C(=O)C[C@H]1C(C)(C)O` [NOMILINIC ACID], the “inhibition (INH)” value is given as 34.2% in test [1] and 28.5% in test [2].
